What follows are compounds tested on varicella-zoster virus (VZV) TK− (07/1) (assay: microbe, parasite or virus in culture). Settings: read-out: EC50 VZV TK− (07/1).
Format: cell-based

Compound | EC50
CCCCCCCCCCCCCCCCOCCCOP(=O)(CC=C(COC(C)=O)COc1cc(Cl)nc(N)n1)OCOC(=O)OC(C)C (mixture of isomers) [Compound (8), [(E/Z)-2′-[(2-amino-6-chloro-pyrimidin-4-yl)oxymethyl]-4-[3-hexadecoxypropoxy(isopropoxycarbonyloxymethoxy)phosphoryl]but-2′-enyl]acetate] | > 20 µM
CCCCCCCCCCCCCCCCOCCCOP(=O)(C/C=C/COc1cc(N)nc(N)n1)OCOC(=O)OC(C)C (stereo not drawn) [Compound (2), [[(E)-4-(2,6-diaminopyrimidin-4-yl)oxybut-2′-enyl]-(3-hexadecoxypropoxy)phosphoryl]oxymethyl isopropyl carbonate] | 0.24 µM
[(E/Z)-2-[[2-[bis(tert-butoxycarbonyl)amino]-6-methoxy-pyrimidin-4-yl]oxymethyl]-4-[3-hexadecoxypropoxy(isopropoxycarbonyloxymethoxy)phosphoryl]but-2′-enyl]acetate [Compound (7)] | > 20 µM

— patent US11603380B2 (Centre national de la recherche scientifique, priority 2018, dated 2023)
